In assay [1] the test system is HCC1806 cells. In words: Cell viability assay, 24 hour treatment. It counts as cell-based, human. The conditions noted are these: HCC1806, 24 hours, mean ± SD. The procedure:
(§1) Cell cytotoxicity assays. […] In brief, breast cancer cells were seeded in 96 well-plates at a density of 10^4 cells/well in growth media. On the following day, the contents of the 96 well plates were aspirated and replaced by treatment at different concentrations (ranging from 10^-9 to 10^-3 M), followed by the addition of media to bring the total volume to 200 µL/well. The untreated control group was incubated with 200 µL/well of fresh media. One day later, the media were aspirated and replaced by 90 µL media + 10 µL Prestoblue reagent, followed by incubation at 37° C. for 1 h. The fluorescence was excited at 560 nm and emission was recorded at 590 nm using a Spectra Max plus 384 Microplate Spectrophotometer (Molecular Devices, Sunnyvale, CA). Relative cell viability values were expressed as the percentage of the fluorescence recorded from wells containing treated cells compared to the control wells containing untreated cells.
(§2) Each breast cancer cell line was treated for 24 hours with various concentrations of E2-PROTAC or partial PROTAC and then cell viability was assessed using an MTS assay that measures mitochondrial oxido-reductase enzymes capable of converting a tetrazolium salt to a formazan dye (summarized in Table 2). […] These IC50 values were similar to those measured for cells treated with partial PROATAC.

In assay [2] the test system is MCF-7 cells. In words: Cell viability assay, 24 hour treatment. The assay is classed as cell-based, human. As to conditions: MCF-7, 24 hours, mean ± SD. How it is done:
as §1, §2

In assay [3] the test system is MDA-MB-231 cells. In words: Cell viability assay, 24 hour treatment. The assay is classed as cell-based, human. The conditions noted are these: MDA-MB-231, 24 hours. The procedure: as §1, §2
Assay [4] relates to SKBR3 cells. In words: Cell viability assay, 24 hour treatment. The assay is classed as cell-based, human. The conditions noted are these: SKBR3, 24 hours, mean ± SD. The procedure: as §1, §2
The target in assay [5] is T1, HA-b1AR (Homo sapiens, UniProt P08588).
T1 construct: expressed in transfected cells
T1 sequence (P08588 whole entry): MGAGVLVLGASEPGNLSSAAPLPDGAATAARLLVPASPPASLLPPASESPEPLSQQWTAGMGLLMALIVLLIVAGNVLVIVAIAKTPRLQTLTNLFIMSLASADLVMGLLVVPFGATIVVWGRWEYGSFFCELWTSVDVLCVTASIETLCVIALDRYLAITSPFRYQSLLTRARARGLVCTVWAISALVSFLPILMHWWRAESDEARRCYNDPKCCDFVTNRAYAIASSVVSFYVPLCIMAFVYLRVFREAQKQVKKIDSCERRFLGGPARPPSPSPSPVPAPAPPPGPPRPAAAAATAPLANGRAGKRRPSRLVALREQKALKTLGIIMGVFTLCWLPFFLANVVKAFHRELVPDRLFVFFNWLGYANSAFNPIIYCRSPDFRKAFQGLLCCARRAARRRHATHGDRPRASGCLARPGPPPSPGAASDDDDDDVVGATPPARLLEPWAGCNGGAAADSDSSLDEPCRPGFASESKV
In words: Immunofluorescence with HA antibody, stably transfected HEK293 cells. As to conditions: 100 µM, 1 hour. The assay is classed as cell-based.

Assay [6] concerns HCC1806 cells. In words: Cell cycle analysis, propidium iodide, flow cytometry. The assay is classed as cell-based, human. As to conditions: HCC1806, 10 µM, 24 hours. The source says:
(§3) FIG. 30. E2-PROTACs promote estrogen receptor-dependent G2/M arrest. E2-PROTAC induced G2/M arrest in human breast cancer cell lines expressing membrane and/or intracellular estrogen receptors. […] Fixed cells were permeabilized and dyed with propidium iodide (PI). Cell cycle data were acquired on a flow cytometer and analyzed using Flow-Jo software. Data are expressed as mean ± SEM (n=3). The percentage of cells in each phase were plotted using Prism 8.0.
(§4) Cell cycle analysis. […] Following treatment, cells were harvested by trypsinization and washed twice in ice-cold PBS. Cells were then fixed in 70% ethanol at 4° C. for 30 minutes. Fixed cells were pelleted by centrifugation at 230 g for 5 minutes and the cell pellet was incubated in Krishan’s solution (3.8 mM sodium citrate (Fisher Scientific), 0.014 mM propidium iodide (AnaSpec, Fermont, Ca), 1% NP-40 (Sigma) and 2.0 mg/mL RNase A (Fisher Scientific)) for 30 minutes at 37° C. Cells were then centrifuged and washed in PBS prior to analysis using a FacScallibur flow cytometer. The data from flow cytometry were subjected to further analysis by CellQuest software version 3.3. DNA histograms generated indicate the fractions of the cell population in the sub-G1, G0-G1, S, or G2/M phase of the cell cycle.
(§5) To investigate the biological effect associated with decreased cell viability, cell cycle analysis was performed on the same four cell lines using propidium iodide staining and measured by flow cytometry 24 hours after treatment of cells with 10 µM E2-PROTAC or partial PROTAC (FIG. 30).

Assay [7] relates to MCF-7 cells. Described as above. The conditions noted are these: MCF-7, 10 µM, 24 hours. It counts as cell-based, human.
Source text: as §3, §4, §5

For assay [8], the system named is MDA-MB-231 cells. The description is as above. The assay is classed as cell-based, human. As to conditions: MDA-MB-231, 10 µM, 24 hours.
Source text: as §3, §4, §5

The test system of assay [9] is SKBR3 cells. Described as above. It counts as cell-based, human. As to conditions: SKBR3, 10 µM, 24 hours.
Source text: as §3, §4, §5

Assay [10] deals with HCC 1806 and SKBR3 cells. In words: Survivability of breast cancer cells (Example 1). As to conditions: HCC 1806 and SKBR3, 24 hours of treatment.
The target in assay [11] is T2, GPER (Homo sapiens, UniProt Q99527). In words: Immunostaining of endogenous receptors in MCF-7 cells. As to conditions: MCF-7, 1 hour.
T2 sequence (Q99527 whole entry): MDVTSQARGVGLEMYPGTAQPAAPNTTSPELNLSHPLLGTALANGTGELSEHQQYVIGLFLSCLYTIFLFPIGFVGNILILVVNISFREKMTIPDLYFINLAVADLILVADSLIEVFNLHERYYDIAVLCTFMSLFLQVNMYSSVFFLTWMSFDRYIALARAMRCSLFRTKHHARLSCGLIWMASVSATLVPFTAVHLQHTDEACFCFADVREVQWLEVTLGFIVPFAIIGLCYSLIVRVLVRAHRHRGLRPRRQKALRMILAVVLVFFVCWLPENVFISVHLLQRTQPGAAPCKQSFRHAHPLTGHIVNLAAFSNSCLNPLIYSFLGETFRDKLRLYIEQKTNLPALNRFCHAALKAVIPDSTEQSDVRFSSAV
Assay [12] has as its target T2, GPER. In words: Competitive binding assay in intact SKBR3 cells with E2-FITC as fluoro-tracer (flow cytometry). More on the design: endogenous in cells; host or cells: SKBR3 human breast carcinoma cells (ATCC). In general terms: In flow cytometry, cells or beads pass a laser one at a time.

SMILES strings stand for the structures. Where only a bound is given, the exact number is not on record here.

The IC50 is the concentration that inhibits the measured activity by half. Lower therefore signals greater potency in that assay. The term Kd denotes the constant that tells how readily two partners part at equilibrium.

In the case of `Cc1ncsc1-c1ccc(CNC(=O)C2CC(O)CN2C(=O)C(NC(=O)COCCOCCOCCOCC(=O)OC2CCC3C4CCc5cc(O)ccc5C4CCC23C)C(C)(C)C)cc1` (stereo not shown) [UI-EP001], the IC50 in assay [1] is 34.9 ± 1.2 µM; in [2], 9 ± 1.2 µM; in [3] it was over 100 µM; in assay [4], 10.9 ± 1.2 µM. Moreover, the “off-target degradation of HA-b1AR” value in assay [5] is “without detectable off-target degradation”. Besides, the cell cycle distribution entry in assay [6] is reported as “dramatic increase in the G2/M peak”; in [7], “dramatic increase in the G2/M peak”; in assay [8], “This shift was not observed”; in [9], “dramatic increase in the G2/M peak”. Further, the “survivability compared to partial PROTAC” value in [10] is “lower survivability”. Besides, the “intracellular GPER expression” value in assay [11] is “Clear site-specific reduction”. Besides, the “RBA%, GPER” value in assay [12] (IC50 of 17β-E2 divided by IC50 of test compound) is on record as 330%. Also, the Kd in [12] (intact SKBR3 cells, E2-FITC, read-out: binding dissociation constant (Kd), GPER) was about 0.03 µM.

The values above are taken from patent US20230312639A1, “GPER PROTEOLYTIC TARGETING CHIMERAS” (University of Iowa Research Foundation, priority 2020, published 2023).
